In patent US8815535B2, “Disk diffusion assay for oritavancin” (The Medicines Company, priority 2011, dated 2014):
Read-outs that look alike come from different tables or passages of the source.

Tests used:
[1] = system: MSSA ATCC 29213; assay: Disk diffusion assay (zone of inhibition); format: cell-based; conditions: Staphylococcus aureus; for zone of inhibition at 360 µg/disc: 360 μg in 5% P80, read-out: Zone diameter (mm ± SD); for zone of inhibition at 180 µg/disc: MSSA ATCC 29213, 180 μg oritavancin in 2.5% P80, read-out: Zone diameter
Source text: (§1) The study was designed to identify conditions that improve oritavancin diffusion in agar and consequently yield a zone diameter ≧15 mm for the CLSI quality control strain MSSA ATCC 25923. Excipients that increased the disk diffusion of oritavancin in agar relative to disks containing only oritavancin were identified and selected for further study. […] A prediffusion step at room temperature was introduced to maximize oritavancin diffusion prior to initiation of bacterial growth. In this step, the antimicrobial disks were placed on agar plates seeded with a bacterial isolate and incubated at room temperature for 3 hours. Plates were then incubated overnight at 37° C. Zone diameters around the disks in which bacterial growth was inhibited were measured with a ruler and reported in millimeters.
(§2) Ethanol-sterilized Whatman paper disks (6 mm diameter) were allowed to dry then impregnated with 20 microliters of oritavancin solution containing total amounts ranging from 90 to 360 micrograms. Disks were allowed to dry at room temperature for various times prior to use.
(§3) Bacterial suspensions were prepared and adjusted to an optical density of 0.1 at 600 nm. Standard cation-adjusted Mueller Hinton agar plates (90 mm diameter) were seeded with bacterial suspensions by initially swabbing the center of plate then moving outward towards the edge. The plate was swabbed a second time, perpendicular to the orientation of the first swab. To assess the impact of prediffusion on diameter of inhibition zones, two disks were immediately placed on one half of the plate and the plate was incubated for 3 hours at room temperature. After 3 hours, two additional disks were placed on the other half of the plate then the plate was incubated overnight at 37° C. Zone diameters were measured with a ruler and reported in millimeters.
(§4) Oritavancin powder was dissolved in freshly-prepared solutions of the indicated excipients at concentrations of 0.625, 1.25, 2.5, 5, and 10 mg/ml (adjusted for potency based on lot 875561L00 purity of 83.1%) by vortexing for a minimum of 5 minutes. Oritavancin solutions in the various excipients, while not visually clear, were free from any apparent particulates as assessed visually. Sterile Oxoid blank disks were impregnated with 20 μl of these oritavancin solutions, resulting in oritavancin disk loads ranging from 12.5 to 200 μg. Unless indicated otherwise, disks were allowed to dry overnight at room temperature prior to use.
(§5) Bacterial suspensions from isolated colonies on overnight cation-adjusted Mueller Hinton agar plates were prepared in sterile saline and adjusted to an optical density of 0.1 at 600 nm Standard cation-adjusted Mueller Hinton agar plates (90 mm diameter) were seeded with bacterial suspensions by initially swabbing the center of plate then moving outward. Swabbing was continued at a right angle and then at an oblique angle to the first and second swabs. Disks were placed upon the seeded plates with sterile forceps. Plates were then incubated overnight at 37° C. and inhibition zone diameters were measured with a ruler and reported in millimeters.

[2] = system: NRS123 and NRS2; assay: Disk diffusion assay, difference in zone diameter between two isolates; format: cell-based, Staphylococcus aureus
Source text: as §1, §2, §3

[3] = system: MRSA U260847; assay: Disk diffusion assay (zone of inhibition); format: cell-based, Staphylococcus aureus; conditions: 20 μl of 1.25 mg/ml in 4% P80/Span 80 (1:1), calcium alginate swabs, dried overnight, duplicate
Experimental: as §4, §5

[4] = system: MRSA Q670505; assay: Disk diffusion assay (zone of inhibition); format: cell-based, Staphylococcus aureus; conditions: 20 μl of 1.25 mg/ml in 4% P80/Span 80 (1:1), calcium alginate swabs, dried overnight, duplicate
Experimental: as §4, §5

[5] = system: MSSA S815247; assay: Disk diffusion assay (zone of inhibition); format: cell-based, Staphylococcus aureus; conditions: 20 μl of 1.25 mg/ml in 4% P80/Span 80 (1:1), calcium alginate swabs, dried overnight, duplicate
Experimental: as §4, §5

[6] = system: MRSA V257345; assay: Disk diffusion assay (zone of inhibition); format: cell-based, Staphylococcus aureus; conditions: 20 μl of 1.25 mg/ml in 4% P80/Span 80 (1:1), calcium alginate swabs, dried overnight, duplicate
Experimental: as §4, §5

[7] = system: hVISA NRS36; assay: Disk diffusion assay (zone of inhibition); format: cell-based, Staphylococcus aureus; conditions: 25 μg (1.25 mg/ml) in 4% P80/Span 80 (1:1), dried overnight
Experimental: as §4, §5

[8] = system: MRSA U933237; assay: Disk diffusion assay (zone of inhibition); format: cell-based, Staphylococcus aureus; conditions: 20 μl of 1.25 mg/ml in 4% P80/Span 80 (1:1), calcium alginate swabs, dried overnight, duplicate
Experimental: as §4, §5

[9] = system: VISA Mu50 (ATCC 700699); assay: Disk diffusion assay (zone of inhibition); format: cell-based, Staphylococcus aureus; conditions: for zone of inhibition at 360 µg/disc: ATCC 700699; for zone of inhibition at 100 µg/disc: 100 μg in 4% P80/Span 80 (1:1); for zone of inhibition at 200 µg/disc: 200 μg in 4% P80/Span 80 (1:1)
Source text: as §1, with “In this step, the antimicrobial disks were placed on agar plates seeded with a bacterial isolate and incubated at room temperature for 3 hours.” left out
as §2
Bacterial suspensions were prepared and adjusted to an optical density of 0.1 at 600 nm. Standard cation-adjusted Mueller Hinton agar plates (90 mm diameter) were seeded with bacterial suspensions by initially swabbing the center of plate then moving outward towards the edge. The plate was swabbed a second time, perpendicular to the orientation of the first swab. […] After 3 hours, two additional disks were placed on the other half of the plate then the plate was incubated overnight at 37° C. Zone diameters were measured with a ruler and reported in millimeters.
as §4, §5

[10] = Staphylococcus aureus, MRSA, read-out: Inhibition zone diameter
[11] = Staphylococcus aureus, Mu50, calcium alginate swab, dried overnight, read-out: Inhibition zone diameter
[12] = Staphylococcus aureus, Mu50, cotton swab, dried overnight, estimate of diameter

CN[C@H](CC(C)C)C(=O)N[C@H]1C(=O)N[C@@H](CC(N)=O)C(=O)N[C@H]2C(=O)N[C@H]3C(=O)N[C@H](C(=O)N[C@H](C(=O)O)c4cc(O)cc(O)c4-c4cc3ccc4O)[C@H](O[C@H]3C[C@](C)(N)[C@@H](O)[C@H](C)O3)c3ccc(c(Cl)c3)Oc3cc2cc(c3O[C@@H]2O[C@H](CO)[C@@H](O)[C@H](O)[C@H]2O[C@H]2C[C@](C)(NCc3ccc(-c4ccc(Cl)cc4)cc3)[C@@H](O)[C@H](C)O2)Oc2ccc(cc2Cl)[C@H]1O [oritavancin, N-(4-(4-chlorophenyl)benzyl)A82846B]
zone of inhibition at 360 µg/disc ([1]; 336 h, ATCC 29213, Experiment 1, disks stored 14 days, no prediffusion): 15.8 ± 0.4 mm
zone of inhibition at 25 µg/disc ([1]; ATCC 29213, 25 μg (1.25 mg/ml) in 4% P80/Span 80 (1:1), dried overnight, read-out: Inhibition zone diameter): 24 mm
zone of inhibition at 360 µg/disc ([1]; ATCC 29213, Average, no prediffusion): 15.8 ± 0.4 mm
zone of inhibition at 360 µg/disc ([1]; ATCC 29213, Average, prediffusion): 18.3 ± 0.4 mm
zone of inhibition at 360 µg/disc ([1]; ATCC 29213, Experiment 1, disks stored 14 days, 3 h prediffusion at room temperature): 18.3 ± 0.4 mm
zone of inhibition at 180 µg/disc ([1]; 0% P80 in CAMHA, no prediffusion): 15.3 mm
zone of inhibition at 180 µg/disc ([1]; 0% P80 in CAMHA, prediffusion): 18.3 mm
zone of inhibition at 180 µg/disc ([1]; 1% P80 in CAMHA, no prediffusion): 15.3 mm
zone of inhibition at 180 µg/disc ([1]; 1% P80 in CAMHA, prediffusion): 18 mm
Difference in diameter (NRS2 subtracted from NRS123) ([2]; 90 μg oritavancin, 2.5% P80): 1.8 mm
Difference in diameter (NRS2 subtracted from NRS123) ([2]; 90 μg oritavancin, 5% P80): 1 mm
Difference in diameter (NRS2 subtracted from NRS123) ([2]; 90 μg oritavancin, 10% P80): −0.3 mm
Difference in diameter (NRS2 subtracted from NRS123) ([2]; 180 μg oritavancin, 2.5% P80): 1.7 mm
Difference in diameter (NRS2 subtracted from NRS123) ([2]; 180 μg oritavancin, 5% P80): 1.3 mm
Difference in diameter (NRS2 subtracted from NRS123) ([2]; 180 μg oritavancin, 10% P80): 1.3 mm
Difference in diameter (NRS2 subtracted from NRS123) ([2]; 360 μg oritavancin, 2.5% P80): 1.8 mm
Difference in diameter (NRS2 subtracted from NRS123) ([2]; 360 μg oritavancin, 5% P80): 0.5 mm
Difference in diameter (NRS2 subtracted from NRS123) ([2]; 360 μg oritavancin, 10% P80): 1 mm
Inhibition zone diameter [3]: 22 mm
zone of inhibition at 1250 µg/mL [3, 10]: 21 mm
Inhibition zone diameter [4]: 18, 18 mm
zone of inhibition at 1250 µg/mL [4, 10]: 18 mm
Inhibition zone diameter [5]: 21 mm
zone of inhibition at 1250 µg/mL ([5]; Staphylococcus aureus, MSSA, read-out: Inhibition zone diameter): 20 mm
Inhibition zone diameter [6]: 22 mm
zone of inhibition at 1250 µg/mL [6, 10]: 21 mm
Inhibition zone diameter ([7]; NRS36): 12 mm
zone of inhibition at 25 µg/disc ([7]; Staphylococcus aureus, NRS36, read-out: Inhibition zone diameter, NRS36): 11 mm
Inhibition zone diameter [8]: 22 mm
zone of inhibition at 1250 µg/mL [8, 10]: 21 mm
Inhibition zone diameter ([9]; Mu50, 12.5 μg in 4% P80/Span 80 (1:1), calcium alginate swab, dried overnight): no zone
Inhibition zone diameter ([9]; Mu50, 12.5 μg in 4% P80/Span 80 (1:1), cotton swab, dried overnight, estimate of diameter): no zone
Inhibition zone diameter ([9]; Mu50, 25 μg (20 μl of 1.25 mg/ml) in 4% P80/Span 80 (1:1), calcium alginate swab, dried overnight): no zone
Inhibition zone diameter ([9]; Mu50, 20 μl of 1.25 mg/ml oritavancin in 5% Brij 30): no zone
zone of inhibition at 360 µg/disc ([9]; Staphylococcus aureus, 3 h, 360 μg oritavancin, excipient 10% HPCD, disks made same day, 3 h prediffusion, average of 2 disks, read-out: Average zone diameter): 17.3 mm
zone of inhibition at 360 µg/disc ([9]; Staphylococcus aureus, 192 h, 360 μg in 5% P80, Experiment 2, disks stored 8 days, no prediffusion, read-out: Zone diameter (mm ± SD)): 13 mm
zone of inhibition at 360 µg/disc ([9]; Staphylococcus aureus, 336 h, 360 μg in 5% P80, Experiment 1, disks stored 14 days, no prediffusion, read-out: Zone diameter (mm ± SD)): 13.5 ± 0.7 mm
zone of inhibition at 360 µg/disc ([9]; Staphylococcus aureus, 360 μg in 5% P80, Average of experiments, no prediffusion, read-out: Zone diameter (mm ± SD)): 13.3 ± 0.5 mm
zone of inhibition at 360 µg/disc ([9]; Staphylococcus aureus, 360 μg in 5% P80, Average of experiments, prediffusion, read-out: Zone diameter (mm ± SD)): 14.3 ± 0.3 mm
zone of inhibition at 360 µg/disc ([9]; Staphylococcus aureus, 360 μg in 5% P80, Experiment 1, disks stored 14 days, 3 h prediffusion at room temperature, read-out: Zone diameter (mm ± SD)): 14.5 mm
zone of inhibition at 360 µg/disc ([9]; Staphylococcus aureus, 360 μg in 5% P80, Experiment 2, disks stored 8 days, 3 h prediffusion at room temperature, read-out: Zone diameter (mm ± SD)): 14 mm
zone of inhibition at 360 µg/disc ([9]; Staphylococcus aureus, 360 μg oritavancin, excipient 5% P80, disks stored 5 days at room temperature, 3 h prediffusion, average of 2 disks, read-out: Average zone diameter): 15 mm
zone of inhibition at 25 µg/disc ([9]; Staphylococcus aureus, Mu50, 25 μg in 4% P80/Span 80 (1:1), cotton swab, dried overnight, estimate of diameter): 7 mm
zone of inhibition at 50 µg/disc ([9]; Staphylococcus aureus, Mu50, 50 μg in 4% P80/Span 80 (1:1), calcium alginate swab, dried overnight, read-out: Inhibition zone diameter): 7 mm
zone of inhibition at 50 µg/disc ([9]; Staphylococcus aureus, Mu50, 50 μg in 4% P80/Span 80 (1:1), cotton swab, dried overnight, estimate of diameter): 10 mm
zone of inhibition at 50 µg/disc ([9]; Staphylococcus aureus, Mu50, 50 μg, 4% P80/Span 80 ratio 50:50, dried overnight, estimate of diameter): 10 mm
zone of inhibition at 50 µg/disc ([9]; Staphylococcus aureus, Mu50, 50 μg, 4% P80/Span 80 ratio 60:40, dried overnight, estimate of diameter): 11 mm
zone of inhibition at 50 µg/disc ([9]; Staphylococcus aureus, Mu50, 50 μg, 4% P80/Span 80 ratio 70:30, dried overnight, estimate of diameter): 12 mm
zone of inhibition at 50 µg/disc ([9]; Staphylococcus aureus, Mu50, 50 μg, 4% P80/Span 80 ratio 80:20, dried overnight, estimate of diameter): 12 mm
zone of inhibition at 50 µg/disc ([9]; Staphylococcus aureus, Mu50, 50 μg, 4% P80/Span 80 ratio 90:10, dried overnight, estimate of diameter): 12 mm
zone of inhibition at 100 µg/disc [9, 11]: 8 mm
zone of inhibition at 100 µg/disc [9, 12]: 11 mm
zone of inhibition at 200 µg/disc [9, 11]: 8 mm
zone of inhibition at 200 µg/disc [9, 12]: 10 mm
zone of inhibition at 1250 µg/mL ([9]; Staphylococcus aureus, Mu50, 20 μl of 1.25 mg/ml oritavancin in 1% poly(ethylene glycol) sorbitol hexaoleate, read-out: Inhibition zone diameter): 8 mm
zone of inhibition at 1250 µg/mL ([9]; Staphylococcus aureus, Mu50, 20 μl of 1.25 mg/ml oritavancin in 5% Merpol SE, read-out: Inhibition zone diameter): 9 mm
